Measurements: patent US20080146555A1, “Uses of Kinase Inhibitors and Compositions Thereof” (GPC Biotech, Inc, priority 2004, published 2008)
pIC50: −log10 of the molar value. Structures can show the parent of a compound that is named as a salt. Where two headings read alike, the source gives them in different places.

What was measured:
MEK1 = biological target: T1, MEK1 (Homo sapiens, UniProt Q02750); assay: MEK1 kinase assay; type: biochemical
T1 construct: purchased Upstate 14-429
Protocol: 1. Assay Dilution Buffer I (ADBI, Catalog #20-108): 20 mM MOPS, pH 7.2, 25 mM β-glycerol phosphate, 5 mM EGTA, 1 mM sodium orthovanadate, 1 mM dithiothreitol. • 2. Magnesium/ATP Cocktail (Catalog #20-113): 500 μM cold ATP and 75 mM magnesium chloride in ADBI. • 3. MEK1, active: Dilute to 0.5-5 ng/μl with ADBI containing 0.03% Brij-35 and 1 mg/ml BSA. Use 5 μl per assay point. • 4. MAP Kinase 2/Erk2, unactive (Catalog #14-198): Use 1 μg per assay point. • 5. MBP Substrate (Catalog #13-104): Prepare a 3.33 mg/ml stock solution with ADBI. Use 2.5 μl per assay for a final concentration of 0.33 mg/ml per assay point. • 6. Magnesium/ATP Cocktail (Catalog #20-113): 75 mM MgCl2 and 500 μM ATP in 20 mM MOPS, pH 7.2, 25 mM β-glycerol phosphate, 5 mM EGTA, 1 mM sodium orthovanadate, 1 mM dithiothreitol.
7. [γ-^32P]ATP: Stock 1 mCi/100 μl (3000 Ci/mmol, obtained from Perkin Elmer, Catalog #BLU002A). Make 10 μl aliquots (100 μCi/vial). Before starting the assay, dilute the Magnesium/ATP Cocktail 1:1 with sterile, distilled water. Then dilute an aliquot of [γ-^32P]ATP to 1 μCi/μl with 90 μl of the diluted Magnesium/ATP Cocktail. […]
• 1. Add 1 μl of ADBI to a microcentrifuge tube. • 2. Add 5 μl of Magnesium/ATP cocktail. • 3. Add 5 μl of MEK1, active (2.5-25 ng) • 4. Add 4 μl (1 μg) of unactive MAP Kinase 2/Erk 2. • 5. Incubate at 30° C. for 30 minutes. • 6. Remove 1 μl of this mixture and add to Stage Two component mixture.
• 1. Add 12.5 μl of ADBI. • 2. Add 2.5 μl of MBP stock solution. • 3. Add 10 μl of diluted [γ-^32P] ATP. • 4. Incubate for at 30° C. 10 minutes. • 5. Transfer a 20 μl aliquot onto the center of a 2 cm×2 cm P81 paper square. • 6. Wash the paper squares three times with 0.75% phosphoric acid for 5 minutes per wash. • 7. Wash the paper squares once with acetone for five minutes. • 8. Transfer the paper squares to a scintillation vial and add 5 ml scintillation cocktail. • 9. Read in scintillation counter. Compare cpm of enzyme samples to cpm of control samples that contain no enzyme (background control).

JNK3 = biological target: T2, JNK3 (Homo sapiens, UniProt P53779); assay: JNK3 kinase assay; type: biochemical
T2 construct: purchased Upstate 14-501
Protocol: • 1. 10× Reaction Buffer: 500 mM Tris-HCl pH 7.5, 1 mM EGTA, 1% 2-mercaptoethanol. • 2. Enzyme Dilution Buffer (EDB): 50 mM Tris-HCl pH 7.5, 0.1 mM EGTA, 0.1% 2-mercaptoethanol, 1 mg/ml BSA, 0.03% Brij-35. • 3. JNK3/SAPK1b, active: Dilute to 4-24 ng/μl with EDB. Use 2.5 μl per assay point. • 4. ATF2 (amino acids 19-96) (Catalog #12-367): Prepare a 1.08 mg/ml stock. Use 2.5 μl per assay point for a final concentration of 3 μM per assay point. • 5. [γ-^32P]ATP: Stock 1 mCi/100 μl (3000 Ci/mmol, obtained from PerkinElmer, Cat. # BLU002A). Make 10 μl aliquots (100 μCi/vial). Before starting the assay, dilute an aliquot to 1 μCi/μl with 90 μl of 75 mM MgCl2 and 500 μM cold ATP in 20 mM MOPS, pH 7.2, 25 mM β-glycerol phosphate, 5 mM EGTA, 1 mM sodium orthovanadate, 1 mM dithiothreitol.
• 1. Add 2.5 μl of 10× Reaction Buffer per assay. • 2. Add 2.5 μl of ATF2 (amino acids 19-96). • 3. Add 2.5 μl (10-60 ng) JNK3/SAPK1b, active. • 4. Add 7.5 μl of sterile, distilled water. • 5. Add 10 μl of the diluted [γ-^32P]ATP mixture. • 6. Incubate for 10 minutes at 30° C. • 7. Transfer a 20 μl aliquot onto the center of a 2 cm×2 cm P81 paper. • 8. Wash the assay squares three times for 5 minutes with 0.75% phosphoric acid. • 9. Wash the assay squares once for 5 minutes with acetone. • 10. Transfer the assay squares to vial and add 5 ml scintillation cocktail. • 11. Read in scintillation counter. Compare cpm of enzyme samples to cpm of control samples that contain background control.

DNA replication = assay: Inhibition of DNA replication; type: cell-based; conditions: 24 hour incubation
[1] = kinase panel, 10 μM ATP, read-out: MAPK 1 / MEK1 IC50
[2] = read-out: MAP2K1 Inhibition (IC50)
[3] = kinase panel, 10 μM ATP, read-out: JNK3 IC50
[4] = read-out: MAPK10 Inhibition (IC50)

T1 sequence (Q02750 whole entry, species assumed): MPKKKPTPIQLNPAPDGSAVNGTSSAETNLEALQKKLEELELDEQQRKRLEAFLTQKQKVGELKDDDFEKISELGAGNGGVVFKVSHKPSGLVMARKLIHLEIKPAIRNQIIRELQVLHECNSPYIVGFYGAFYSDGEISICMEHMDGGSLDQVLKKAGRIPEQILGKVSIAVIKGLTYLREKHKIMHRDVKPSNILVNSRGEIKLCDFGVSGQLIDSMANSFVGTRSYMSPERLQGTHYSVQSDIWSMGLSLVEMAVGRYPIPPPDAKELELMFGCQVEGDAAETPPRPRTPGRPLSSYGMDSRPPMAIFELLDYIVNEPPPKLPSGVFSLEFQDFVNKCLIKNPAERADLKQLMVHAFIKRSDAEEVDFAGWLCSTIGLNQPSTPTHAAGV
T2 sequence (P53779 39-464): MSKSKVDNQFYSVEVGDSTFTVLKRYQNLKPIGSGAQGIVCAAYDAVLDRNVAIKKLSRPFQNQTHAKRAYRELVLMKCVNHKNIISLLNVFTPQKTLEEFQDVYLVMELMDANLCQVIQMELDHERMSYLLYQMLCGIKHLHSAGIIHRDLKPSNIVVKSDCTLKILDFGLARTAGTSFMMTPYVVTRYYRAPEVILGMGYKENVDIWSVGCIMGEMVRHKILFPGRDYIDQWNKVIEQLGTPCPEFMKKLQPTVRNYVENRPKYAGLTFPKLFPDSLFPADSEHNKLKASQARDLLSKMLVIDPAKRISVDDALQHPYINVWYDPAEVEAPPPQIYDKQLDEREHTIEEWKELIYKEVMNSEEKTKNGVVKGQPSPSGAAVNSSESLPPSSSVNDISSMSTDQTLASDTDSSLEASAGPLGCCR

Structure (SMILES)	pIC50 (MEK1; [1])	pIC50 (MEK1; [2])	pIC50 (JNK3; [3])	pIC50 (JNK3; [4])	pIC50 (DNA replication)
CC(C)N1CCN(C(=O)COc2ccc(-c3n[nH]c4c3C(=O)c3c(NC(=O)NN5CCOCC5)cccc3-4)cc2)CC1 [Compound A37]	7.00 to 8.00	> 7.30	7.00 to 8.00	> 7.30	7.80
COCCN1CCN(Cc2ccc(-c3n[nH]c4c3C(=O)c3c(NC(=O)NN5CCOCC5)cccc3-4)cc2)CC1 [Compound B16, N-[3-(4-{[4-(2-methoxyethyl)piperazinyl]methyl}phenyl)-4-oxoindeno[2,3-d]pyrazol-5-yl](morpholin-4-ylamino)carboxamide dihydrochloride]	> 7.00	> 7.00	> 7.00	> 7.30	8.00
